According to patent US8916567B2, “Certain crystalline hydrates, pharmaceutical compositions thereof and methods for preparation and use thereof” (Universal Technology Alliance, Inc., priority 2009, dated 2014):

Experiments:
E. feacalis = experiment: Minimum inhibitory concentration (MIC) in vitro, agar dilution method; type: cell-based; conditions: hydrate
Outline: (§1)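 Test samples, hydrates and anhydrous forms of 98.6–99.0% purity, are taken up in DMSO, then diluted in sterile distilled water and assayed against clinical isolates by CLSI agar dilution.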

E. feacium = experiment: as above; type: cell-based; conditions: hydrate
Outline: as §1

S. epidermidis MRSE = experiment: as above; type: cell-based; conditions: hydrate
Outline: as §1

S. epidermidis MSSE = experiment: as above; type: cell-based; conditions: hydrate
Outline: as §1

[1] = tested on: Staphylococcus aureus MRSA; experiment: as above; type: cell-based; conditions: hydrate
Outline: as §1

[2] = tested on: Staphylococcus aureus MSSA; experiment: as above; type: cell-based; conditions: hydrate
Outline: as §1

Staphylococcus aureus = experiment: Minimum inhibitory concentration (MIC) in vitro, agar dilution method, quality control strain; type: cell-based; conditions: strain S. AT C C25923 (Table 7 No. 1); hydrate
Outline: as §1

[3] = Solubility in different solvents according to Chinese Pharmacopeia (2005 edition); type: physicochemical; conditions: for Result: at the given solute:solvent ratio
Experimental: The solubility of the (S)—[N-3-(3′-fluoro-4′-(4″-phenylpiperazinyl))phenyl-2-oxo-5-oxazolelidinyl]methylacetamide hydrates was tested with different solvents, and the test results are shown in Tables 15-19. The solubility was measured according to Chinese Pharmacopeia (2005 edition).

[4] = E. feacalis (5 strains), clinically isolated
[5] = E. feacium (5 strains), clinically isolated
[6] = S. ep MRSE (10 strains), clinically isolated
[7] = S. ep MSSE (10 strains), clinically isolated
[8] = S. MRSA (10 strains), clinically isolated
[9] = S. MSSA (11 strains), clinically isolated

With `CC(=O)NC[C@H]1CN(c2ccc(N3CCN(c4ccccc4)CC3)c(F)c2)C(=O)O1` [2/7 hydrate, (S)—[N-3-(3′-fluoro-4′-(4″-phenylpiperazinyl))phenyl-2-oxo-5-oxazolidinyl]methyl acetamide 2/7 hydrate] as the molecule, how does the MIC50 (E. feacalis; [4]) read?
Its MIC50 is 0.25 µg/mL.

What about the MIC90 (E. feacalis; [4]) of the same molecule?
Its MIC90 is 0.5 µg/mL.

What about the MICrange (E. feacalis; [4]) of the same molecule?
Its MICrange is 0.125 to 0.5 µg/mL.

And the MIC (E. feacalis; strain Efa 116 (Table 8 No. 16))?
Its MIC is 0.5 µg/mL.

And the MIC (E. feacalis; strain Efa 907 (Table 8 No. 19))?
The MIC was 0.25 µg/mL.

And the MIC (E. feacalis; strain Efa 3006 (Table 8 No. 18))?
Its MIC is 0.25 µg/mL.

And the MIC (E. feacalis; strain Efa 33748 (Table 8 No. 17))?
Its MIC is 0.5 µg/mL.

What about the MIC50 (E. feacium; [5]) of the same molecule?
Its MIC50 is 1 µg/mL.

And the MIC90 (E. feacium; [5])?
The MIC90 was 1 µg/mL.

What about the MICrange (E. feacium; [5]) of the same molecule?
The MICrange was 0.5 to 1 µg/mL.

What about the MIC (E. feacium; strain Efm 98 (Table 8 No. 21)) of the same molecule?
The MIC was 0.5 µg/mL.

And the MIC (E. feacium; strain Efm 171 (Table 8 No. 25))?
The MIC was 1 µg/mL.

And the MIC (E. feacium; strain Efm 197 (Table 8 No. 22))?
The MIC was 0.5 µg/mL.

What about the MIC (E. feacium; strain Efm N3 (Table 8 No. 23)) of the same molecule?
The MIC was 1 µg/mL.

What about the MIC (E. feacium; strain Efm N4 (Table 8 No. 24)) of the same molecule?
The MIC was 1 µg/mL.

And the MIC50 (S. epidermidis MRSE; [6])?
Its MIC50 is 0.5 µg/mL.

What about the MIC90 (S. epidermidis MRSE; [6]) of the same molecule?
The MIC90 was 0.5 µg/mL.

What about the MICrange (S. epidermidis MRSE; [6]) of the same molecule?
The MICrange was 0.25 to 0.5 µg/mL.

And the MIC (S. epidermidis MRSE; strain S. ep MRSE4 (Table 8 No. 9))?
The MIC was 0.25 µg/mL.

And the MIC (S. epidermidis MRSE; strain S. ep MRSE20 (Table 8 No. 6))?
The MIC was 0.5 µg/mL.

What about the MIC (S. epidermidis MRSE; strain S. ep MRSE87 (Table 8 No. 13)) of the same molecule?
The MIC was 0.5 µg/mL.

And the MIC (S. epidermidis MRSE; strain S. ep MRSE90 (Table 8 No. 10))?
The MIC was 0.5 µg/mL.

And the MIC (S. epidermidis MRSE; strain S. ep MRSE101 (Table 8 No. 7))?
Its MIC is 0.25 µg/mL.

And the MIC (S. epidermidis MRSE; strain S. ep MRSE105 (Table 8 No. 11))?
The MIC was 0.5 µg/mL.

And the MIC (S. epidermidis MRSE; strain S. ep MRSE140 (Table 8 No. 14))?
Its MIC is 0.5 µg/mL.

What about the MIC (S. epidermidis MRSE; strain S. ep MRSE142 (Table 8 No. 12)) of the same molecule?
Its MIC is 0.5 µg/mL.

And the MIC (S. epidermidis MRSE; strain S. ep MRSE210 (Table 8 No. 15))?
The MIC was 0.5 µg/mL.

And the MIC (S. epidermidis MRSE; strain S. ep MRSE211 (Table 8 No. 8))?
The MIC was 0.5 µg/mL.

What about the MIC50 (S. epidermidis MSSE; [7]) of the same molecule?
The MIC50 was 0.5 µg/mL.

And the MIC90 (S. epidermidis MSSE; [7])?
Its MIC90 is 0.5 µg/mL.

And the MICrange (S. epidermidis MSSE; [7])?
The MICrange was 0.25 to 0.5 µg/mL.

And the MIC (S. epidermidis MSSE; strain S. ep MSSE87 (Table 7 No. 23))?
Its MIC is 0.125 µg/mL.

And the MIC (S. epidermidis MSSE; strain S. ep MSSE88 (Table 8 No. 5))?
The MIC was 0.5 µg/mL.

And the MIC (S. epidermidis MSSE; strain S. ep MSSE113 (Table 7 No. 24))?
Its MIC is 0.25 µg/mL.

And the MIC (S. epidermidis MSSE; strain S. ep MSSE116 (Table 7 No. 25))?
Its MIC is 0.25 µg/mL.

What about the MIC (S. epidermidis MSSE; strain S. ep MSSE118 (Table 8 No. 2)) of the same molecule?
Its MIC is 0.5 µg/mL.

And the MIC (S. epidermidis MSSE; strain S. ep MSSE119 (Table 7 No. 27))?
Its MIC is 0.25 µg/mL.

And the MIC (S. epidermidis MSSE; strain S. ep MSSE137 (Table 8 No. 4))?
Its MIC is 0.5 µg/mL.

And the MIC (S. epidermidis MSSE; strain S. ep MSSE140 (Table 8 No. 3))?
The MIC was 0.5 µg/mL.

What about the MIC (S. epidermidis MSSE; strain S. ep MSSE142 (Table 7 No. 26)) of the same molecule?
Its MIC is 0.5 µg/mL.

And the MIC (S. epidermidis MSSE; strain S. ep MSSE153 (Table 8 No. 1))?
Its MIC is 0.5 µg/mL.

And the MIC50 [1, 8]?
The MIC50 was 0.5 µg/mL.

And the MIC90 [1, 8]?
The MIC90 was 0.5 µg/mL.

What about the MICrange [1, 8] of the same molecule?
The MICrange was 0.5 to 1 µg/mL.

What about the MIC ([1]; strain S. MRSA 29 (Table 7 No. 15)) of the same molecule?
The MIC was 0.5 µg/mL.

What about the MIC ([1]; strain S. MRSA 101 (Table 7 No. 14)) of the same molecule?
Its MIC is 1 µg/mL.

What about the MIC ([1]; strain S. MRSA 201 (Table 7 No. 13)) of the same molecule?
The MIC was 0.5 µg/mL.

What about the MIC ([1]; strain S. MRSA B27 (Table 7 No. 21)) of the same molecule?
The MIC was 0.5 µg/mL.

And the MIC ([1]; strain S. MRSA B105 (Table 7 No. 17))?
Its MIC is 0.5 µg/mL.

What about the MIC ([1]; strain S. MRSA B143 (Table 7 No. 19)) of the same molecule?
Its MIC is 0.5 µg/mL.

What about the MIC ([1]; strain S. MRSA B151 (Table 7 No. 20)) of the same molecule?
The MIC was 0.5 µg/mL.

And the MIC ([1]; strain S. MRSA B164 (Table 7 No. 16))?
Its MIC is 0.5 µg/mL.

What about the MIC ([1]; strain S. MRSA B199 (Table 7 No. 22)) of the same molecule?
Its MIC is 0.5 µg/mL.

And the MIC ([1]; strain S. MRSA B617 (Table 7 No. 18))?
Its MIC is 0.5 µg/mL.

What about the MIC50 [2, 9] of the same molecule?
The MIC50 was 0.5 µg/mL.

And the MIC90 [2, 9]?
The MIC90 was 0.5 µg/mL.

What about the MICrange [2, 9] of the same molecule?
The MICrange was 0.5 to 1 µg/mL.

What about the MIC ([2]; strain S. MSSA 123 (Table 7 No. 3)) of the same molecule?
Its MIC is 0.5 µg/mL.

And the MIC ([2]; strain S. MSSA 187 (Table 7 No. 7))?
Its MIC is 0.5 µg/mL.

What about the MIC ([2]; strain S. MSSA 195 (Table 7 No. 6)) of the same molecule?
The MIC was 1 µg/mL.

And the MIC ([2]; strain S. MSSA 195 (Table 7 No. 12))?
Its MIC is 0.5 µg/mL.

And the MIC ([2]; strain S. MSSA 201 (Table 7 No. 11))?
Its MIC is 0.5 µg/mL.

And the MIC ([2]; strain S. MSSA 232 (Table 7 No. 2))?
The MIC was 0.5 µg/mL.

And the MIC ([2]; strain S. MSSA 275 (Table 7 No. 10))?
Its MIC is 0.5 µg/mL.

What about the MIC ([2]; strain S. MSSA 466 (Table 7 No. 8)) of the same molecule?
The MIC was 0.5 µg/mL.

What about the MIC ([2]; strain S. MSSA 519 (Table 7 No. 9)) of the same molecule?
Its MIC is 0.5 µg/mL.

And the MIC ([2]; strain S. MSSA 520 (Table 7 No. 4))?
The MIC was 0.25 µg/mL.

And the MIC ([2]; strain S. MSSA 580 (Table 7 No. 5))?
Its MIC is 0.25 µg/mL.

What about the MIC (Staphylococcus aureus) of the same molecule?
Its MIC is 0.5 µg/mL.

And the “Solubility compared with the anhydride” value ([3]; different solvents)?
Its value is “sometimes more soluble than the anhydride”.

What about the Result ([3]; solvent 0.1N Hydrochloric acid) of the same molecule?
Its Result is “Dissolved”.

And the Result ([3]; solvent 0.1N Sodium hydroxide)?
The Result was “Insoluble”.

And the Result ([3]; solvent Acetonitrile)?
The Result was “Dissolved”.

What about the Result ([3]; solvent Ethanol) of the same molecule?
The Result was “Dissolved”.

And the Result ([3]; solvent Methanol)?
Its Result is “Dissolved”.

And the Result ([3]; solvent Water, hydrate)?
The Result was “Dissolved”.
